Results from paper PMC9926234, “Iterative computational design and crystallographic screening identifies potent inhibitors targeting the Nsp3 macrodomain of SARS-CoV-2” (Proceedings of the National Academy of Sciences of the …, 2023).

molecular target: T1, SARS-CoV-2 NSP3 Mac1 (Severe acute respiratory syndrome coronavirus 2, UniProt P0DTD1); format: binding; settings: PanDDA event map, 1 minus background density correction; crystal soaking of Mac1

SMILES | 1-BDC | 1-BDC (PanDDA)
Cc1cc(S(=O)(=O)Nc2cnc3[nH]ccc3c2)n(C2CCCC2)n1 [FRESH00010608284] | 0.15 | 
CC1(C(=O)O)CCN(C(=O)Cc2c[nH]c3nccc(Cl)c23)C1 (stereo not shown) [FRESH00014134848] | 0.11 | 
O=c1nc(N2CC(Cn3cnnc3)C3(CCC3)C2)cc(Cl)[nH]1 (stereo not shown) [FRESH00020289192] | 0.08 | 
O=C(O)[C@@H]1CCCN(C(=O)c2ccnc3[nH]ccc23)C1 [REAL250000548538] | 0.08 | 
O=C(c1cn[nH]c(=O)c1)N1CCC(CF)(C(=O)O)C1 (stereo not shown) [REAL250001448407] | 0.12 | 
CN(CCCC(=O)O)C(=O)c1ncnc2[nH]ccc12 [REAL250002155324] | 0.12 | 
O=C(O)C[C@@H]1CCCN(c2ncnc3nc[nH]c23)C1 [REAL250002852032] | 0.19 | 
CN(CC(=O)O)C(=O)c1ccc2n[nH]c(=O)n2c1 [REAL250003774401] | 0.16 | 
CC1C(C(=O)O)CCCN1S(=O)(=O)c1c[nH]c2ncc(Cl)cc12 (stereo not shown) [REAL300016493575] |  | 0.09

same assay, conditions: ligand modeled from this dataset; compound concentration 100 mM

SMILES | Modeled?
O=C(O)[C@@H]1CCCN(C(=O)c2ccnc3[nH]ccc23)C1 [REAL250000548538] | TRUE
CC1C(C(=O)O)CCCN1S(=O)(=O)c1c[nH]c2ncc(Cl)cc12 (stereo not shown) [REAL300016493575] | TRUE

same assay, conditions: ligand occupancy after refinement (phenix.refine); crystal soaking of Mac1

SMILES | Refined occupancy
Cc1cc(S(=O)(=O)Nc2cnc3[nH]ccc3c2)n(C2CCCC2)n1 [FRESH00010608284] | 30
CC1(C(=O)O)CCN(C(=O)Cc2c[nH]c3nccc(Cl)c23)C1 (stereo not shown) [FRESH00014134848] | 22
O=c1nc(N2CC(Cn3cnnc3)C3(CCC3)C2)cc(Cl)[nH]1 (stereo not shown) [FRESH00020289192] | 16
O=C(O)[C@@H]1CCCN(C(=O)c2ccnc3[nH]ccc23)C1 [REAL250000548538] | 16
O=C(c1cn[nH]c(=O)c1)N1CCC(CF)(C(=O)O)C1 (stereo not shown) [REAL250001448407] | 24
CN(CCCC(=O)O)C(=O)c1ncnc2[nH]ccc12 [REAL250002155324] | 24
O=C(O)C[C@@H]1CCCN(c2ncnc3nc[nH]c23)C1 [REAL250002852032] | 38
CN(CC(=O)O)C(=O)c1ccc2n[nH]c(=O)n2c1 [REAL250003774401] | 32
CC1C(C(=O)O)CCCN1S(=O)(=O)c1c[nH]c2ncc(Cl)cc12 (stereo not shown) [REAL300016493575] | 18

same assay, conditions: overall hit flag: binding in crystallographic soaking or the HTRF-based binding assay

SMILES | HIT*
O=C(Cc1ccc(-n2cccn2)cc1)OCC1CCCNC1=O (stereo not shown) [Z5505] | Y

same assay, conditions: true hit = binding in crystallographic soaking or the HTRF-based binding assay

SMILES | HIT*
Cc1cc(S(=O)(=O)Nc2cnc3[nH]ccc3c2)n(C2CCCC2)n1 [FRESH00010608284] | Y
CC1(C(=O)O)CCN(C(=O)Cc2c[nH]c3nccc(Cl)c23)C1 (stereo not shown) [FRESH00014134848] | Y
O=c1nc(N2CC(Cn3cnnc3)C3(CCC3)C2)cc(Cl)[nH]1 (stereo not shown) [FRESH00020289192] | Y
O=C(O)[C@@H]1CCCN(C(=O)c2ccnc3[nH]ccc23)C1 [REAL250000548538] | Y
O=C(c1cn[nH]c(=O)c1)N1CCC(CF)(C(=O)O)C1 (stereo not shown) [REAL250001448407] | Y
CN(CCCC(=O)O)C(=O)c1ncnc2[nH]ccc12 [REAL250002155324] | Y
O=C(O)C[C@@H]1CCCN(c2ncnc3nc[nH]c23)C1 [REAL250002852032] | Y
CN(CC(=O)O)C(=O)c1ccc2n[nH]c(=O)n2c1 [REAL250003774401] | Y
CC1C(C(=O)O)CCCN1S(=O)(=O)c1c[nH]c2ncc(Cl)cc12 (stereo not shown) [REAL300016493575] | Y

molecular target: T1, SARS-CoV-2 NSP3 Mac1; format: binding; design: contains a conserved macrodomain enzyme (Mac1); settings: DSF dose responsiveness, 1 µM nsp3 mac1; adj p given
Experimental: DSF and associated compound handling was performed as described ([12]), with 5 µM dye “Fluorescent Yellow” (Jacquard iDye Cat #JID1405) used in place of SYPRO Orange. Compounds were tested in triplicate, at seven concentrations in two-fold serial dilutions, at a top concentration of either 1,000 or 100 μM. To minimize experimental noise arising from plate location-based effects on Tma, all concentrations and replicates for each compound were tested within a single region of the microtiter plates, including a DMSO-only control from which ΔTmas were calculated for that compound. […] For each compound, to determine statistical significance of the dose responsive thermal shift, the Spearman’s coefficient was calculated between compound concentration and ΔTma.

SMILES | Spearman est (compound concentration vs apparent Tm)
Cc1cc(S(=O)(=O)Nc2cnc3[nH]ccc3c2)n(C2CCCC2)n1 [FRESH00010608284] | −0.51
CC1(C(=O)O)CCN(C(=O)Cc2c[nH]c3nccc(Cl)c23)C1 (stereo not shown) [FRESH00014134848] | 0.41
O=c1nc(N2CC(Cn3cnnc3)C3(CCC3)C2)cc(Cl)[nH]1 (stereo not shown) [FRESH00020289192] | −0.17
O=C(O)[C@@H]1CCCN(C(=O)c2ccnc3[nH]ccc23)C1 [REAL250000548538] | 0.27
O=C(c1cn[nH]c(=O)c1)N1CCC(CF)(C(=O)O)C1 (stereo not shown) [REAL250001448407] | −0.24
CN(CCCC(=O)O)C(=O)c1ncnc2[nH]ccc12 [REAL250002155324] | −0.27
O=C(O)C[C@@H]1CCCN(c2ncnc3nc[nH]c23)C1 [REAL250002852032] | 0.29
CN(CC(=O)O)C(=O)c1ccc2n[nH]c(=O)n2c1 [REAL250003774401] | −0.3
CC1C(C(=O)O)CCCN1S(=O)(=O)c1c[nH]c2ncc(Cl)cc12 (stereo not shown) [REAL300016493575] | −0.16

same assay, conditions: maximal thermal upshift

SMILES | DSF max dTma
Cc1cc(S(=O)(=O)Nc2cnc3[nH]ccc3c2)n(C2CCCC2)n1 [FRESH00010608284] | 0.06 ˚C
CC1(C(=O)O)CCN(C(=O)Cc2c[nH]c3nccc(Cl)c23)C1 (stereo not shown) [FRESH00014134848] | 0.07 ˚C
O=c1nc(N2CC(Cn3cnnc3)C3(CCC3)C2)cc(Cl)[nH]1 (stereo not shown) [FRESH00020289192] | 0.04 ˚C
O=C(O)[C@@H]1CCCN(C(=O)c2ccnc3[nH]ccc23)C1 [REAL250000548538] | 0.25 ˚C
O=C(c1cn[nH]c(=O)c1)N1CCC(CF)(C(=O)O)C1 (stereo not shown) [REAL250001448407] | 0 ˚C
CN(CCCC(=O)O)C(=O)c1ncnc2[nH]ccc12 [REAL250002155324] | 0.12 ˚C
O=C(O)C[C@@H]1CCCN(c2ncnc3nc[nH]c23)C1 [REAL250002852032] | 0.58 ˚C
CN(CC(=O)O)C(=O)c1ccc2n[nH]c(=O)n2c1 [REAL250003774401] | 0 ˚C
CC1C(C(=O)O)CCCN1S(=O)(=O)c1c[nH]c2ncc(Cl)cc12 (stereo not shown) [REAL300016493575] | 0.15 ˚C

same assay, conditions: maximal thermal upshift vs DMSO control

SMILES | DSF max dTma [°C]
O=C(Cc1ccc(-n2cccn2)cc1)OCC1CCCNC1=O (stereo not shown) [Z5505] | 0.16
